Results on ten compounds are retold here after patent US6472417B1, “Synergistic pesticidal composition of pyrethroid and N-phenyl-pyrazole” (priority 1994, dated 2002).

Read-outs that look alike come from different tables or passages of the source.

The subject of this assay is Coptotermes formosanusus Shiraki. The assay is described as follows: Termite control soil treatment test (Japan Wood Preservation Association Standards No. 13, 1987): bored depth, damage by eating, termite control effect. Type of assay: in vivo. The conditions noted are these: for Bored depth (mm) 14 days later: treated soil layer 1 cm. An excerpt:
In the description of these embodiments, the term “part(s)” means part(s) by weight. The test method of embodiments was in accordance with Japan Wood Preservation Association Standards No. 13, 1987, “Standards for Testing Methods of Termite Controlling Effects and Performance of Termite Controlling Agents for Soil Treatment (I)”.
A testing apparatus was used in which two glass cylinders (each about 5 cm in diameter and about 12 cm in height) are connected at about 2 cm from the bottom with a glass tube about 1.5 cm in diameter and about 10 cm in length (graduated at 5-mm intervals for 5 cm at the center). The one glass cylinder was filled with about 60 g of non-treated soil adjusted to a moisture content of about 25%, and the other glass cylinder was filled with about 0.29 g of filter paper (5.5 mm in diameter). The glass tube was filled, at a thickness of 1 cm, with test soil prepared by mixing 2.4 g of non-treated sandy soil which had passed through a 20-mesh screen and had been dried at 60° C. until a constant weight had been achieved, with 0.45 g of the solution of the test composition of a predetermined concentration, and the mixture was allowed to stand for 3 weeks in a room without weather resistance treatment. The glass tube was connected to the glass cylinders.
In the glass cylinder filled with non-treated soil, 200 workers and 20 soldiers of Coptotermes formosanusus Shiraki were placed, and the testing apparatus was kept at a constant temperature chamber controlled at a temperature of 28° C., and a relative humidity of 70% or higher.
The bored depth (millimeters=mm), damage by eating, and the termite control effect were determined 14 days after insects were put in place, and the effect was evaluated in accordance with the following criteria: […]

[1] abbreviates: Concentration (%) 0.02, single ingredient.
Setting [2] is: Concentration (%) 0.1, single ingredient.
Where [3] appears, read: Coptotermes, soil, 336 h, read-out: Termite control effect 14 days later.
The mark [4] stands for this setting: Concentration (%) 0.005, single ingredient.
Setting [5] is: Concentration (%) 0.01, single ingredient.
Where [6] appears, read: Concentration (%) 0.025, single ingredient.
Setting [7] is: Concentration (%) 0.05, single ingredient.
The mark [8] stands for this setting: Concentration (%) 0.002, single ingredient.

Regarding `CC1(C)C(C=C(Cl)Cl)C1C(=O)OCc1cccc(Oc2ccccc2)c1` (racemic) [Permethrin, 3-phenoxybenzyl (1RS,3RS)-(1RS,3RS)-(2,2-dichlorovinyl)-2,2-diimethylcyclopropane carboxylate], under setting [1], the “Damage by eating 14 days later” value is listed as “+++ (51% or more compared with non-treatment)” and the “Bored depth (mm) 14 days later” value is above 10 mm. Moreover, under setting [2], the “Damage by eating 14 days later” value was “None” and the “Bored depth (mm) 14 days later” value was above 10 mm. Besides, under setting [3], the pest or weed control at 0.02 % was below 49% and the pest or weed control at 0.1 % was below 49%.
In the case of `N#Cc1nn(-c2c(Cl)cc(C(F)(F)F)cc2Cl)c(N)c1[S+]([O-])C(F)(F)F` (stereo not drawn) [Compound A, 5-amino-3-cyano-1-(2,6-dichloro-4-trifluoromethylphenyl)-4-trifluoromethylsulphinylpyrazole], under setting [4], the “Damage by eating 14 days later” value was “++ (11-50% or less compared with non-treatment)” and the “Bored depth (mm) 14 days later” value is recorded as above 10 mm. Further, under setting [5], the “Damage by eating 14 days later” value was “+ (10% or less compared with non-treatment)” and the “Bored depth (mm) 14 days later” value is recorded as above 10 mm. Under setting [1], the “Damage by eating 14 days later” value is listed as “+ (10% or less compared with non-treatment)” and the “Bored depth (mm) 14 days later” value is above 10 mm. Moreover, under setting [3], the pest or weed control at 0.005 % came to 100%, the pest or weed control at 0.01 % was 100% and the pest or weed control at 0.02 % stood at 100%.
Take `Cc1c(COC(=O)[C@@H]2[C@H](/C=C(\Cl)C(F)(F)F)C2(C)C)cccc1-c1ccccc1` (racemic) [Bifenthrin, 2-methylbiphenyl-3-yl-methyl (Z)-1RS,3RS)-3-(2-chloro-3,3,3-trifluoroprop-1-enyl)-2-2-dimnethylcyclopropane carboxylate]: under setting [4], the “Damage by eating 14 days later” value is reported as “+++ (51% or more compared with non-treatment)” and the “Bored depth (mm) 14 days later” value is above 10 mm. In addition, under setting [5], the “Damage by eating 14 days later” value is on record as “+++ (51% or more compared with non-treatment)” and the “Bored depth (mm) 14 days later” value was above 10 mm. Moreover, under setting [3], the pest or weed control at 0.005 % was below 49% and the pest or weed control at 0.01 % is below 49%.
As to `CC1(C)C(C=C(Cl)Cl)C1C(=O)OC(C#N)c1cccc(Oc2ccccc2)c1` (racemic) [Cypermethrin, (RS)-a-cyano-3-phenoxybenzyl (1RS,3RS)-(1RS,3SR)-3-(2,2-dichlorovinyl)-2,2-dimethylcyclopropane carboxylate], under setting [4], the “Damage by eating 14 days later” value is reported as “+++ (51% or more compared with non-treatment)” and the “Bored depth (mm) 14 days later” value was above 10 mm. Moreover, under setting [6], the “Damage by eating 14 days later” value was “None” and the “Bored depth (mm) 14 days later” value is listed as above 10 mm. Under setting [3], the pest or weed control at 0.005 % is below 49% and the pest or weed control at 0.025 % is below 49%.
With `CCOc1ccc([Si](C)(C)CCCc2ccc(F)c(Oc3ccccc3)c2)cc1` [Silafluofen, 4-ethoxyphenyl-[3-(3-phenoxy-4-fluorophenyl)propyl](dimnethyl)silane], under setting [5], the “Damage by eating 14 days later” value is “+++ (51% or more compared with non-treatment)” and the “Bored depth (mm) 14 days later” value is above 10 mm. Under setting [7], the “Damage by eating 14 days later” value is given as “+ (10% or less compared with non-treatment)” and the “Bored depth (mm) 14 days later” value is above 10 mm. In addition, under setting [3], the pest or weed control at 0.01 % was below 49% and the pest or weed control at 0.05 % is 100%.
As to `CC(C)C(C(=O)OC(C#N)c1cccc(Oc2ccccc2)c1)c1ccc(Cl)cc1` (racemic) [Fenvalerate, (RS)-a-cyano-3-phenoxybenzyl (RS)-2-(4-chlorophenyl)-3-methylbutanoate], under setting [5], the “Damage by eating 14 days later” value was “+++ (51% or more compared with non-treatment)” and the “Bored depth (mm) 14 days later” value is listed as above 10 mm. For the same compound, under setting [7], the “Damage by eating 14 days later” value is “+ (10% or less compared with non-treatment)” and the “Bored depth (mm) 14 days later” value was above 10 mm. Besides, under setting [3], the pest or weed control at 0.01 % was below 49% and the pest or weed control at 0.05 % was found to be 100%.
As for `CC(C)[C@H](Nc1ccc(C(F)(F)F)cc1Cl)C(=O)OC(C#N)c1cccc(Oc2ccccc2)c1` (stereo partly drawn) [Fluvalinate], under setting [7], the “Damage by eating 14 days later” value is “+++ (51% or more compared with non-treatment)” and the “Bored depth (mm) 14 days later” value is above 10 mm. For the same compound, the pest or weed control at 0.05 % under setting [3] is below 49%.
With `CCOc1ccc(C(C)(C)COCc2cccc(Oc3ccccc3)c2)cc1` [Ethofenprox, 2-(4-ethoxyphenyl)-2-methylpropyl-3-phenoxybenzyl ether], under setting [1], the “Damage by eating 14 days later” value is listed as “+++ (51% or more compared with non-treatment)”, the “Termite control effect 14 days later” value is on record as “D (49% lethal or less)” and the “Bored depth (mm) 14 days later” value is above 10 mm. In addition, under setting [2], the “Damage by eating 14 days later” value is “None”, the “Termite control effect 14 days later” value was “D (49% lethal or less)” and the “Bored depth (mm) 14 days later” value is above 10 mm.
Consider `CC1(C)[C@H](C(=O)O[C@@H](C#N)c2ccc(F)c(Oc3ccccc3)c2)[C@@H]1C=C(Cl)Cl` (racemic) [Cyfluthrin, (RS)-a-cyano-4-fluoro-3-phenoxybenzyl (1RS, 3RS)-(1RS, 3RS)-3-(2,2-dichlorovinyl)-2,2-dimethylcyclopropane carboxylate], for which, under setting [4], the “Damage by eating 14 days later” value was “+++ (51% or more compared with non-treatment)”, the “Termite control effect 14 days later” value is “D (49% lethal or less)” and the “Bored depth (mm) 14 days later” value is above 10 mm. Under setting [6], the “Damage by eating 14 days later” value is “None”, the “Termite control effect 14 days later” value is given as “D (49% lethal or less)” and the “Bored depth (mm) 14 days later” value is reported as above 10 mm.
Regarding `CC1(C)[C@H](C(=O)O[C@H](C#N)c2cccc(Oc3ccccc3)c2)[C@@H]1C(Br)C(Br)(Br)Br` (stereo partly drawn) [Tralomethrin, (S)-a-cyano-3-phenoxybenzyl (1R,3S)-2,2-dinethyl-3-(1,2,2,2-tetrabromoethyl)cyclopropane carboxylate], under setting [8], the “Damage by eating 14 days later” value is recorded as “+++ (51% or more compared with non-treatment)” and the “Bored depth (mm) 14 days later” value is given as above 10 mm. For the same compound, under setting [5], the “Damage by eating 14 days later” value is on record as “+++ (51% or more compared with non-treatment)” and the “Bored depth (mm) 14 days later” value is listed as above 10 mm. Under “Coptotermes, soil, 336 h, Concentration (%) 0.002, single ingredient, read-out: Termite control effect 14 days later”, the pest or weed control at 0.002 % is below 49%. Further, for the setting “Coptotermes, soil, 336 h, Concentration (%) 0.01, single ingredient, read-out: Termite control effect 14 days later”, the pest or weed control at 0.01 % is below 49%.
